Among the data in patent publication US5801149A, “Inhibition of signal transduction molecules” (Joslin D-abetes Center, Inc., priority 1995, dated 1998) are Ki and Km values, retold here.

In general, Ki refers to the dissociation constant of the complex between target and ligand, obtained from inhibition or displacement. For orientation: Km means the concentration of substrate that gives half-maximal velocity.

Non-standard residues stand in square brackets, D forms with d. Residues, ends and D or L forms follow the SMILES beside them. Pmp = N[C@@H](Cc1ccc(CP(=O)(O)O)cc1)C(=O)O; dPmp = N[C@H](Cc1ccc(CP(=O)(O)O)cc1)C(=O)O; pY = N[C@@H](Cc1ccc(OP(=O)(O)O)cc1)C(=O)O

In one assay the target is T1, Rat PTPase 1B (Rattus norvegicus, UniProt P20417).
T1 construct: cloning the full-length cDNA into the bacterial expression vector, PKK233-2; made in house; host or cells: bacteria (vector PKK233-2)
T1 sequence (P20417 1-432): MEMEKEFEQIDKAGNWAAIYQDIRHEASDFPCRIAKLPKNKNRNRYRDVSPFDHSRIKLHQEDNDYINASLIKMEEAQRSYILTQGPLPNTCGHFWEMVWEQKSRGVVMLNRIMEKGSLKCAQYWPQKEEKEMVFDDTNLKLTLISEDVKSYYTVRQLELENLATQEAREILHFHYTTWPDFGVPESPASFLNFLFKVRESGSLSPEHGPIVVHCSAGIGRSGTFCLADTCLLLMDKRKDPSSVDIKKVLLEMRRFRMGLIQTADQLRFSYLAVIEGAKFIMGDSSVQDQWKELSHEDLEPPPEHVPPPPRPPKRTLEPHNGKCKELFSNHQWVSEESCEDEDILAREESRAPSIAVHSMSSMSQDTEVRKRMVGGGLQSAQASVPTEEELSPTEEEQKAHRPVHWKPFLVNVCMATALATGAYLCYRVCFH
In words: PTPase 1B peptide dephosphorylation (Km) and inhibition (Ki). Conditions: Pmp and Pmp-peptides as inhibitors. It is filed as biochemical. On the procedure: The phosphopeptides were used as substrates of PTPase 1B, a single catalytic domain PTPase with a […] tissue distribution (Hunter et al., 1989, cell 58:1013). Rat PTPase 1B (Guan et al., 1990, Proc. Natl., Acad. Sci. USA 87:1501) was obtained by PCR and cloning the full-length cDNA into the bacterial expression vector, PKK233-2.
Sequence specificity for peptide dephosphorylation was observed, with apparent Km values ranging from <2 μM for the phospho-middle t sequence to >2 mM for pTyr itself (Table 3).
Several phosphono peptides were tested for the ability to inhibit PTPase 1B activity and KI values determined by methods known to those skilled in the art.
In turn, `CC[C@H](C)[C@H](NC(=O)[C@H](CC(=O)O)NC(=O)[C@@H](N)CCCNC(=N)N)C(=O)N[C@@H](Cc1ccc(CP(=O)(O)O)cc1)C(=O)N[C@@H](CCC(=O)O)C(=O)N[C@H](C(=O)N[C@@H](CC(=O)O)C(=O)N[C@@H](Cc1ccc(O)cc1)C(=O)N[C@@H](Cc1ccc(O)cc1)C(=O)N[C@@H](CCCNC(=N)N)C(=O)N[C@@H](CCCCN)C(=O)O)[C@@H](C)O` [IR1155-1165(L-Pmp1158), RDI[L-Pmp]ETDYYRK] (H-RDI[Pmp]ETDYYRK-OH; N-terminus assumed) gave a Ki of 30 µM.

Consider `CC[C@H](C)[C@H](NC(=O)[C@H](CC(=O)O)NC(=O)[C@@H](N)CCCNC(=N)N)C(=O)N[C@H](Cc1ccc(CP(=O)(O)O)cc1)C(=O)N[C@@H](CCC(=O)O)C(=O)N[C@H](C(=O)N[C@@H](CC(=O)O)C(=O)N[C@@H](Cc1ccc(O)cc1)C(=O)N[C@@H](Cc1ccc(O)cc1)C(=O)N[C@@H](CCCNC(=N)N)C(=O)N[C@@H](CCCCN)C(=O)O)[C@@H](C)O` [IR1155-1165(d-Pmp1158), RDI[D-Pmp]ETDYYRK] (H-RDI[dPmp]ETDYYRK-OH; N-terminus assumed), for which the affinity, expressed as Ki, was 30 µM.

In the case of “RDIPmpETDPmpPmpRK [IR1155-1165(D,L-Pmp3)]”, the inhibition constant (Ki) is below 2 µM.

Staying with this assay, now noted: apparent Km, phosphotyrosine and pY-peptides as substrates.
With `CC[C@H](C)[C@H](NC(=O)[C@H](CC(=O)O)NC(=O)[C@@H](N)CCCNC(=N)N)C(=O)N[C@@H](Cc1ccc(OP(=O)(O)O)cc1)C(=O)N[C@@H](CCC(=O)O)C(=O)N[C@H](C(=O)N[C@@H](CC(=O)O)C(=O)N[C@@H](Cc1ccc(O)cc1)C(=O)N[C@@H](Cc1ccc(O)cc1)C(=O)N[C@@H](CCCNC(=N)N)C(=O)N[C@@H](CCCCN)C(=O)O)[C@@H](C)O` [1R1155-1165(pY1158), RDIpYETDYYRK] (H-RDI[pY]ETDYYRK-OH), the Michaelis constant (Km) worked out at 30 µM.

Regarding `CC[C@H](C)[C@H](NC(=O)[C@H](CO)NC(=O)[C@H](CCC(=O)O)NC(=O)[C@H](CC(=O)O)NC(=O)[C@@H](N)CCCCN)C(=O)N[C@@H](CC(=O)O)C(=O)N[C@@H](Cc1ccc(OP(=O)(O)O)cc1)C(=O)N[C@H](C(=O)N1CCC[C@H]1C(=O)N[C@@H](CCSC)C(=O)N[C@@H](CC(C)C)C(=O)N[C@@H](CC(=O)O)C(=O)N[C@@H](CCSC)C(=O)N[C@@H](CCCCN)C(=O)NCC(=O)N[C@@H](CC(=O)O)C(=O)O)C(C)C` [mPDGF-Rβ(pY719), KDESIDpYVPMLDMKGD] (H-KDESID[pY]VPMLDMKGD-OH), the Km stood at 8 µM.

As for `CC[C@H](C)[C@H](NC(=O)[C@H](CCC(N)=O)NC(=O)[C@@H]1CCCN1C(=O)[C@H](C)NC(=O)[C@H](CCSC)NC(=O)[C@@H]1CCCN1C(=O)[C@H](CCSC)NC(=O)[C@H](Cc1ccc(OP(=O)(O)O)cc1)NC(=O)[C@H](CCC(=O)O)NC(=O)[C@H](CC(N)=O)NC(=O)[C@H](CCC(=O)O)NC(=O)[C@@H](N)CCCNC(=N)N)C(=O)N[C@@H](Cc1c[nH]cn1)C(=O)O` [middle t(pY298), RENEpYMPMAPQIH] (H-RENE[pY]MPMAPQIH-OH), the Km is below 2 µM.

As for `CSCC[C@H](NC(=O)[C@@H]1CCCN1C(=O)[C@H](CCSC)NC(=O)[C@H](Cc1ccc(OP(=O)(O)O)cc1)NC(=O)CNC(=O)[C@H](CC(=O)O)NC(=O)[C@H](CC(=O)O)NC(=O)[C@@H](N)[C@@H](C)O)C(=O)N[C@@H](CO)C(=O)N1CCC[C@H]1C(=O)NCC(=O)N[C@H](C(=O)O)C(C)C` [IRS-1(pY608), TDDGpYMPMSPGV] (H-TDDG[pY]MPMSPGV-OH), the Km was 30 µM.

Take `C[C@@H](O)[C@H](N)C(=O)N[C@@H](CCC(=O)O)C(=O)N1CCC[C@H]1C(=O)N[C@@H](CCC(=O)O)C(=O)N[C@@H](Cc1ccc(OP(=O)(O)O)cc1)C(=O)N[C@@H](CCC(N)=O)C(=O)N1CCC[C@H]1C(=O)NCC(=O)N[C@@H](CCC(=O)O)C(=O)O` [pp60^c-src (pYS27), TEPEpYQPGE] (H-TEPE[pY]QPGE-OH): the Michaelis constant (Km) is 8 µM.
